# Laboratory results as given in ChEMBL document CHEMBL3994658, “Synthesis, molecular docking and α-glucosidase inhibition of 2-((5,6-diphenyl-1,2,4-triazin-3-yl)thio)-N-arylacetamides” (Bioorg Med Chem Lett, 2017).
# pIC50: −log10 of the molar value.
# Experiment: Inhibition of Saccharomyces cerevisiae alpha-glucosidase using p-nitrophenyl-alpha-D-glucopyranoside as substrate preincubated for 15 mins followed by substrate addition measured after 30 mins by spectrophotometric method
row,Structure (SMILES),pIC50
1,COc1ccc(NC(=O)CSc2nnc(-c3ccccc3)c(-c3ccccc3)n2)cc1,4.31
2,Cc1ccc(NC(=O)CSc2nnc(-c3ccccc3)c(-c3ccccc3)n2)c(C)c1,4.17
3,COc1ccc(NC(=O)CSc2nnc(-c3ccccc3)c(-c3ccccc3)n2)c([N+](=O)[O-])c1,4.33
4,Cc1ccc(NC(=O)CSc2nnc(-c3ccccc3)c(-c3ccccc3)n2)cc1,4.28
5,O=C(CSc1nnc(-c2ccccc2)c(-c2ccccc2)n1)Nc1ccc(Cl)cc1Cl,4.43
6,Cc1ccccc1NC(=O)CSc1nnc(-c2ccccc2)c(-c2ccccc2)n1,4.14
7,Cc1ccc(NC(=O)CSc2nnc(-c3ccccc3)c(-c3ccccc3)n2)c([N+](=O)[O-])c1,4.34
8,O=C(CSc1nnc(-c2ccccc2)c(-c2ccccc2)n1)Nc1ccccc1,4.15
9,O=C(CSc1nnc(-c2ccccc2)c(-c2ccccc2)n1)Nc1ccc(F)cc1,4.30
10,Cc1cccc(NC(=O)CSc2nnc(-c3ccccc3)c(-c3ccccc3)n2)c1,4.37

# These reach a higher pIC50. Values come first.
row,pIC50,Structure (SMILES)
1,4.46,O=C(CSc1nnc(-c2ccccc2)c(-c2ccccc2)n1)Nc1ccc(C(F)(F)F)cc1
2,4.85,O=C(CSc1nnc(-c2ccccc2)c(-c2ccccc2)n1)Nc1ccc(Cl)cc1
3,4.80,CCOc1ccccc1NC(=O)CSc1nnc(-c2ccccc2)c(-c2ccccc2)n1
4,4.60,O=C(CSc1nnc(-c2ccccc2)c(-c2ccccc2)n1)Nc1ccc(Oc2ccccc2)cc1
5,4.90,O=C(CSc1nnc(-c2ccccc2)c(-c2ccccc2)n1)Nc1ccc([N+](=O)[O-])cc1
6,4.55,O=C(CSc1nnc(-c2ccccc2)c(-c2ccccc2)n1)Nc1cc(Cl)ccc1Cl
7,4.58,CCOc1ccc(NC(=O)CSc2nnc(-c3ccccc3)c(-c3ccccc3)n2)cc1
